Values of other authors, collected in patent US9968629B2, “Product and method for supporting uridine homeostasis” (N.V. Nutricia, priority 2012, dated 2018).

O=c1ccn([C@@H]2O[C@H](CO)[C@@H](O)[C@H]2O)c(=O)[nH]1 [uridine]
time after which all administered uridine has been used or is catabolised (FIG. 3 in WO 2007/089703, plasma uridine levels): 6 to 8 h
toxic side effects (high doses of uridine): phlebitis, pyrogenic reactions and diarrhea
half time in the plasma (plasma): 3 to 4 h
